Series [1] has as its system LPS-induced RAW 264.7 macrophages. The series is described as follows: PGE2 production inhibition in LPS-induced RAW 264.7 macrophages. It is filed as cell-based. The following applies: Mus musculus, means ± SD of three independent experiments; for inhibition at 1 µM: RAW264.7, 1 μM; for inhibition at 5 µM: RAW264.7, 5 μM; for inhibition at 10 µM: RAW264.7, 10 μM; for IC50: RAW264.7, LPS-induced RAW 264.7 macrophages. How it is done: Compounds 1b, 1g, 2a, and 2c were able to inhibit more than 50% of the prostaglandin production at a dose 5 μM. The five compounds were able to reduce PGE2 production by over 75% at a dose of 10 μM.
(§1) Cell culture and sample treatment were performed as reported in the literature. The 3-(4,5-dimethylthiazol-2-yl)-2,5-diphenyltetrazolium bromide (MTT) assay for cell viability followed the procedure previously described in the literature. Nitrite determination was carried as described in the literature, and the PGE2 assay was carried as previously described.

Series [2] can be described thus: MTT assay for cell viability / cytotoxicity. Type of series: cell-based. Conditions: mouse, RAW 264.7 macrophages, means ± SD of three independent experiments. How it is done:
In addition to NO inhibition, the cytotoxic activity of compounds 1a–i, 2a–i, 3a–h, and 4a–h in RAW 264.7 macrophages were measured using the 3-(4,5-dimethylthiazol-2-yl)-2,5-diphenyltetrazolium bromide (MTT) assay to check whether the effects on the production of NO was caused by nonspecific cytotoxicity.
as §1
(In general: Formazan colour is commonly taken as a measure of viable cells.)

Series [3] has as its system LPS-induced RAW 264.7 macrophages. The series is described as follows: Nitric oxide (NO) production inhibition in LPS-induced RAW 264.7 macrophages (nitrite determination). Type of series: cell-based. Conditions: Mus musculus; for inhibition at 1 µM: RAW264.7, 1 µM; for inhibition at 1 µM / inhibition at 5 µM / inhibition at 10 µM: LPS-induced RAW 264.7 macrophages; for inhibition at 5 µM: RAW264.7, 5 µM; for inhibition at 10 µM: RAW264.7, 10 µM; for IC50: RAW264.7, nitric oxide production, means ± SD of three independent experiments, read-out: NO (IC50). How it is done: The ability of a certain molecule to inhibit the production of inflammatory mediator(s) is one of successful approach to treatment both chronic and acute inflammation.
as §1

Each structure is given as a SMILES string. Some results are limits rather than exact numbers.

One may read the inhibition as the share of the control response that was lost under treatment. A high value points to a response far below the control. As a reminder, the IC50 is the concentration at which inhibition is half-maximal. In series [1], `CS(=O)(=O)Nc1ccc([N+](=O)[O-])cc1OC1CCCCC1` [NS-398, N-(2-cyclohexyloxy-4-nitrophenyl)methanesulfonamide, reference compound] returned an inhibition at 1 µM of 90.53 ± 0.53%, an inhibition at 5 µM of 95.78 ± 0.67%, an inhibition at 10 µM of 98.2 ± 1.5% and a half-maximal inhibitory concentration (IC50) of 0.00625 µM.
As usually defined, the melting point is the temperature of the solid-liquid transition. As for `COc1cccc(-c2nn(-c3ccccc3)cc2-c2ccnc(NCCCNS(=O)(=O)c3ccc(Cl)cc3)c2)c1` [Compound 2c, 4-Chloro-N-(3-((4-(3-(3-methoxyphenyl)-1-phenyl-1H-pyrazol-4-yl)pyridin-2-yl)amino)propyl)benzenesulfonamide], the melting point lay within 98 to 100 °C. In series [2], this compound showed an IC50 of 289.9 ± 1.87 µM. Besides, in series [3], testing at 1 µM gave an inhibition of 0.02 ± 0.01%, the inhibition at 5 µM was 24.7 ± 0.81%, the inhibition at 10 µM amounted to 59.1 ± 0.93% and the IC50 came to 8.68 ± 0.22 µM. Further, in series [1], the inhibition at 1 µM is 17.5 ± 1.51%, the inhibition at 5 µM was above 50%, the inhibition at 10 µM stood at 81.4 ± 2.94% and inhibition was half-maximal at 4.68 ± 0.37 µM (IC50).
As for `COc1cccc(-c2nn(-c3ccccc3)cc2-c2ccnc(NCCCNS(=O)(=O)c3ccc(F)cc3)c2)c1` [Compound 2d, 4-Fluoro-N-(3-((4-(3-(3-methoxyphenyl)-1-phenyl-1H-pyrazol-4-yl)pyridin-2-yl)amino)propyl)benzenesulfonamide], the melting point is 92 to 94 °C. For the same compound, the IC50 in series [2] came out at 260.3 ± 2.24 µM. In series [3], the inhibition at 1 µM stood at 7.81 ± 0.03%, 5 µM produced 23 ± 0.89% inhibition, the inhibition at 10 µM was found to be 55 ± 4.01% and the IC50 is 12.4 ± 0.4 µM.
Regarding `O=S(=O)(NCCCNc1cc(-c2cn(-c3ccccc3)nc2-c2cccc(O)c2)ccn1)c1ccccc1` [Compound 4a, N-(3-((4-(3-(3-Hydroxyphenyl)-1-phenyl-1H-pyrazol-4-yl)pyridin-2-yl)amino)propyl)benzenesulfonamide], the melting point was 154 to 156 °C. Moreover, the IC50 in series [2] turned out to be 16.6 ± 0.91 µM. Besides, in series [3], testing at 1 µM gave an inhibition of 11.11 ± 0.1%, the inhibition at 5 µM turned out to be 24.1 ± 0.56%, at 10 µM the inhibition was 59.2 ± 1.31% and the IC50 came out at 8.86 ± 0.36 µM.
`COc1cccc(-c2nn(-c3ccccc3)cc2-c2ccnc(NCCNS(=O)(=O)c3cccc(F)c3)c2)c1` [Compound 1h, 3-Fluoro-N-(2-((4-(3-(3-methoxyphenyl)-1-phenyl-1H-pyrazol-4-yl)pyridin-2-yl)amino)ethyl)benzenesulfonamide] registered a melting point of 118 to 120 °C. This compound had a concentration for half-maximal inhibition (IC50) in series [2] of 244.2 ± 2.23 µM. In addition, in series [3], the inhibition at 1 µM was found to be 11.12 ± 0.02%, the inhibition at 5 µM was found to be 26.2 ± 0.99%, testing at 10 µM gave an inhibition of 41.2 ± 2.15% and the IC50 was determined as 12.6 ± 0.29 µM.
In the case of `COc1cccc(-c2nn(-c3ccccc3)cc2-c2ccnc(NCCCNS(=O)(=O)c3ccccc3)c2)c1` [Compound 2a, N-(3-((4-(3-(3-Methoxyphenyl)-1-phenyl-1H-pyrazol-4-yl)pyridin-2-yl)amino)propyl)benzenesulfonamide], the melting point is 119 to 120 °C. Also, the half-inhibitory concentration (IC50) in series [2] was found to be 346 ± 4.21 µM. In addition, in series [3], testing at 1 µM gave an inhibition of 0.17 ± 0.03%, the inhibition at 5 µM was 30.2 ± 0.27%, the inhibition at 10 µM worked out at 62.8 ± 3.25% and the IC50 is 8.04 ± 0.09 µM. Besides, in series [1], the inhibition at 1 µM is 31.1 ± 1.14%, the inhibition at 5 µM was above 50%, at 10 µM the inhibition was 76.9 ± 4.99% and the IC50 is 4.87 ± 0.44 µM.
Compound `COc1cccc(-c2nn(-c3ccccc3)cc2-c2ccnc(NCCNS(=O)(=O)c3ccccc3)c2)c1` [Compound 1a, N-(2-((4-(3-(3-Methoxyphenyl)-1-phenyl-1H-pyrazol-4-yl)pyridin-2-yl)amino)ethyl)benzenesulfonamide] displayed a melting point of 104 to 106 °C. Further, the IC50 in series [2] was determined as 245.8 ± 1.91 µM. For the same compound, in series [3], at 1 µM the inhibition was 17.35 ± 0.09%, testing at 5 µM gave an inhibition of 35.4 ± 1.14%, the inhibition at 10 µM stood at 52.9 ± 3.12% and the IC50 is 9.17 ± 0.52 µM.
Turning to `O=S(=O)(NCCNc1cc(-c2cn(-c3ccccc3)nc2-c2cccc(O)c2)ccn1)c1cccc(F)c1` [Compound 3g, 3-Fluoro-N-(2-((4-(3-(3-hydroxyphenyl)-1-phenyl-1H-pyrazol-4-yl)pyridin-2-yl)amino)ethyl)benzenesulfonamide], the melting point lay within 146 to 148 °C. Moreover, inhibition in series [2] was half-maximal at 28.7 ± 0.74 µM (IC50). Also, in series [3], the inhibition at 1 µM amounted to 16.2 ± 0.17%, at 5 µM the inhibition was 19.1 ± 0.89%, the inhibition at 10 µM stood at 37.7 ± 0.85% and the IC50 worked out at 21.42 ± 0.17 µM.
`Cc1ccc(S(=O)(=O)NCCNc2cc(-c3cn(-c4ccccc4)nc3-c3cccc(O)c3)ccn2)cc1` [Compound 3e, N-(2-((4-(3-(3-Hydroxyphenyl)-1-phenyl-1H-pyrazol-4-yl)pyridin-2-yl)amino)ethyl)-4-methylbenzenesulfonamide] gave a melting point of 114 to 116 °C. For the same compound, in series [2], 32.5 ± 0.75 µM corresponded to half-maximal inhibition (IC50). In addition, in series [3], the inhibition at 1 µM stood at 7.15 ± 0.04%, at 5 µM the inhibition was 12.4 ± 0.72%, the inhibition at 10 µM was 31.4 ± 0.33% and the concentration for half-maximal inhibition (IC50) is 16.1 ± 0.72 µM.
On to `COc1ccc(S(=O)(=O)NCCCNc2cc(-c3cn(-c4ccccc4)nc3-c3cccc(OC)c3)ccn2)cc1` [Compound 2e, 4-Methoxy-N-(3-((4-(3-(3-methoxyphenyl)-1-phenyl-1H-pyrazol-4-yl)pyridin-2-yl)amino)propyl)benzenesulfonamide], for which the melting point is 124 to 126 °C. The same compound returned an IC50 in series [2] above 400 µM. Besides, in series [3], the inhibition at 1 µM turned out to be 2.02 ± 0.01%, at 5 µM the inhibition was 23.9 ± 1.12%, the inhibition at 10 µM was 50.2 ± 1.88% and the IC50 was found to be 9.96 ± 0.18 µM.
Turning to `O=S(=O)(NCCNc1cc(-c2cn(-c3ccccc3)nc2-c2cccc(O)c2)ccn1)c1ccc(F)cc1` [Compound 3d, 4-Fluoro-N-(2-((4-(3-(3-hydroxyphenyl)-1-phenyl-1H-pyrazol-4-yl)pyridin-2-yl)amino)ethyl)benzenesulfonamide], the melting point was 106 to 108 °C. This compound yielded an IC50 in series [2] of 26.6 ± 0.47 µM. Besides, in series [3], the inhibition at 1 µM is 10.58 ± 0.09%, the inhibition at 5 µM was 18.3 ± 0.26%, 10 µM produced 48.2 ± 0.74% inhibition and the half-maximal inhibitory concentration (IC50) was determined as 10.7 ± 0.52 µM.
Consider `COc1cccc(-c2nn(-c3ccccc3)cc2-c2ccnc(NCCCNS(=O)(=O)c3ccc(Br)cc3)c2)c1` [Compound 2b, 4-Bromo-N-(3-((4-(3-(3-methoxyphenyl)-1-phenyl-1H-pyrazol-4-yl)pyridin-2-yl)amino)propyl)benzenesulfonamide], for which the melting point fell in the range of 117 to 119 °C. Further, in series [2], the IC50 worked out at 384.7 ± 1.29 µM. Also, in series [3], at 1 µM the inhibition was 0.01 ± 0.03%, 5 µM produced 28.1 ± 0.66% inhibition, the inhibition at 10 µM was found to be 52.4 ± 1.62% and the IC50 amounted to 9.5 ± 0.34 µM.

Source of the values: publication PMC6222820, “Synthesis of New Triarylpyrazole Derivatives Possessing Terminal Sulfonamide Moiety and Their Inhibitory Effects on PGE2 and Nitric Oxide Productions in Lipopolysaccharide-Induced RAW 264.7 Macrophages” (Molecules : A Journal of Synthetic Chemistry and Natural …, 2018).
